Laboratory results taken from patent publication US11464770B2, “Anticancer pharmaceutical composition” (NATIONAL CANCER CENTER, priority 2016, dated 2022).
Read-outs that look alike come from different tables or passages of the source.

Assays:
[1] = tested on: prostate cancer cell lines (e.g. DU145/TXR); assay: Cell based assay, cell viability (CellTiter-Glo), prostate cancer cell lines; settings: Homo sapiens, 72 hours treatment, final concentration 0 to 2 μM
Summary of the method: (§1)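 Plated cells (24 h) → compound to 0–2 μM final → 72 h → CellTiter-Glo ATP luminescence.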

liver cancer cell lines = assay: Cell based assay, cell viability (CellTiter-Glo), liver cancer cell lines; settings: Homo sapiens, SK-HEP1; SK-HEP-1 cell line
Summary of the method: as §1

melanoma cell lines = assay: Cell based assay, cell viability (CellTiter-Glo), melanoma cell lines; settings: Homo sapiens; LOX-IMVI cell line
Summary of the method: as §1

brain cancer cell lines = assay: Cell based assay, cell viability (CellTiter-Glo), brain cancer cell lines; settings: Homo sapiens
[2] = tested on: cervical carcinoma cell lines; assay: Cell based assay, cell viability (CellTiter-Glo), cervical carcinoma cell lines; settings: Homo sapiens; HeLa cells
[3] = tested on: ovarian cancer cell lines; assay: Cell based assay, cell viability (CellTiter-Glo), ovarian cancer cell lines; settings: Homo sapiens; OVCAR-3 cells
Summary of the method: as §1

[4] = tested on: RT4: human urinary bladder transitional cell papilloma; assay: Cell based assay, cytotoxicity in RT4 papilloma cells (selectivity); settings: Homo sapiens, RT-4; RT4 cells
[5] = CWR22 cells, read-out: IC50, prostate cancer cell line CWR22
[6] = DU-145, DU145/TXR cells, read-out: IC50, prostate cancer cell line DU145/TXR
[7] = DU-145, DU145 cells, read-out: IC50, prostate cancer cell line DU145
[8] = LNcap cells, read-out: IC50, prostate cancer cell line LNcap
[9] = PC-3 cells, read-out: IC50, prostate cancer cell line PC-3
[10] = U138-MG, U-138 MG cell line, read-out: IC50, Brain cancer cell line U-138 MG
[11] = T98G cell line, read-out: IC50, Brain cancer cell line T98G
[12] = U-251 MG cell line, read-out: IC50, Brain cancer cell line U-251 MG

IC50 [1, 5] | IC50 [1, 6] | IC50 [1, 7] | IC50 [1, 8] | IC50 [1, 9] | IC50 (liver cancer cell lines) | IC50 (melanoma cell lines) | IC50 (brain cancer cell lines; [10]) | IC50 (brain cancer cell lines; [11]) | IC50 (brain cancer cell lines; [12]) | IC50 [2] | IC50 [3] | SMILES | IC50 [4]
> 2000 nM | 1230 nM | 1740 nM | > 2000 nM | 1700 nM | 1180 nM | 1410 nM | > 2000 nM | > 10000 nM | > 2000 nM | > 10000 nM | 1310 nM | CC(=O)c1c([S+]([O-])Cc2ccc(OC(F)(F)F)cc2)[nH]c2c(Br)ccc(Cl)c2c1=O (centres unmarked) [Compound 71, 3-acetyl-8-bromo-5-chloro-2-((4-(trifluoromethoxy)benzyl)sulfinyl)quinolin-4(1H)-one] | > 10000 nM
1520 nM | 890 nM | 710 nM | 1910 nM | 1280 nM | 730 nM | 920 nM | 1180 nM | > 10000 nM | 1070 nM | > 2000 nM | 730 nM | CC(=O)c1c([S+]([O-])Cc2ccc(C(F)(F)F)o2)[nH]c2c(Br)ccc(Cl)c2c1=O (centres unmarked) [Compound 72, 3-acetyl-8-bromo-5-chloro-2-(((5-(trifluoromethyl)furan-2-yl)methyl)sulfinyl)quinolin-4(1H)-one] | > 10000 nM
> 2000 nM | 1770 nM | > 2000 nM | > 2000 nM | 1870 nM | 1420 nM | 1670 nM | > 2000 nM | > 10000 nM | > 2000 nM | > 10000 nM | 1110 nM | CC(=O)c1c([S+]([O-])Cc2ccc(C#N)cc2)[nH]c2c(Br)ccc(Cl)c2c1=O (centres unmarked) [Compound 73, 4-(((3-acetyl-8-bromo-5-chloro-4-oxo-1,4-dihydroquinolin-2-yl)sulfinyl)methyl)benzonitrile] | > 10000 nM
1720 nM | 1460 nM | > 2000 nM | 1760 nM | 1470 nM | 880 nM | 1260 nM | 1440 nM | > 10000 nM | > 2000 nM | > 10000 nM | 980 nM | CC(=O)c1c([S+]([O-])Cc2c(F)cccc2Cl)[nH]c2c(Br)ccc(Cl)c2c1=O (centres unmarked) [Compound 74, 3-acetyl-8-bromo-5-chloro-2-((2-chloro-6-fluorobenzyl)sulfinyl)quinolin-4(1H)-one] | > 10000 nM
1880 nM | 1030 nM | 1020 nM | > 2000 nM | 1440 nM | 1030 nM | 1040 nM | 1370 nM | > 10000 nM | 1090 nM | > 10000 nM | 1360 nM | COc1cc(S(F)(F)(F)(F)F)ccc1C[S+]([O-])c1[nH]c2c(Br)ccc(Cl)c2c(=O)c1C(C)=O (centres unmarked) [Compound 75, 3-acetyl-8-bromo-5-chloro-2-((2-methoxy-4-(pentafluoro--sulfanyl)benzyl)sulfinyl)quinolin-4(1H)-one] | > 10000 nM
> 2000 nM | 1170 nM | 1140 nM | > 2000 nM | 1700 nM | 1230 nM | 1370 nM | > 2000 nM | > 10000 nM | > 2000 nM | > 10000 nM | 1460 nM | CC(=O)c1c([S+]([O-])Cc2cc(F)cc(S(F)(F)(F)(F)F)c2)[nH]c2c(Br)ccc(Cl)c2c1=O (centres unmarked) [Compound 76, 3-acetyl-8-bromo-5-chloro-2-((3-fluoro-5-(pentafluoro--sulfanyl)benzyl)sulfinyl)quinolin-4(1H)-one] | > 10000 nM
1940 nM | 1050 nM | 1340 nM | > 2000 nM | > 2000 nM | 1510 nM | 1570 nM | > 2000 nM | > 2000 nM | 1350 nM | > 10000 nM | 820 nM | CC(=O)c1c([S+]([O-])Cc2ccc(I)cc2)[nH]c2c(Cl)ccc(Cl)c2c1=O (centres unmarked) [Compound 83, 3-acetyl-5,8-dichloro-2-((4-iodobenzyl)sulfinyl)quinolin-4(1H)-one] | > 10000 nM
1420 nM | 1230 nM | 1390 nM | > 2000 nM | > 2000 nM | 1070 nM | 1450 nM | > 2000 nM | > 10000 nM | > 2000 nM | > 10000 nM | 590 nM | CC(=O)c1c([S+]([O-])Cc2cccnc2)[nH]c2c(Br)ccc(Cl)c2c1=O (centres unmarked) [Compound 84, 3-acetyl-8-bromo-5-chloro-2-((pyridin-3-ylmethyl)sulfinyl)quinolin-4(1H)-one] | > 10000 nM
1260 nM | 1110 nM | 1310 nM | > 2000 nM | 1670 nM | 1000 nM | 710 nM | 1290 nM | > 10000 nM | 740 nM | > 2000 nM | 380 nM | Cc1cc(C[S+]([O-])c2[nH]c3c(Cl)ccc(Cl)c3c(=O)c2C(=O)C(C)C)no1 (centres unmarked) [Compound 86, 5,8-dichloro-3-isobutyryl-2-(((5-methylisoxazol-3-yl)methyl)sulfinyl)quinolin-4(1H)-one] | > 10000 nM
> 2000 nM | 1960 nM | > 2000 nM | > 2000 nM | > 2000 nM | 1590 nM | 1650 nM | > 2000 nM | > 10000 nM | > 2000 nM | > 10000 nM | 860 nM | COC(=O)c1ccc(C[S+]([O-])c2[nH]c3c(Cl)ccc(Cl)c3c(=O)c2C(C)=O)o1 (centres unmarked) [Compound 89, methyl 5-(((3-acetyl-5,8-dichloro-4-oxo-1,4-dihydroquinolin-2-yl)sulfinyl)methyl)furan-2-carboxylate] | > 10000 nM
1080 nM | 940 nM | 840 nM | 1980 nM | 1700 nM | 940 nM | 540 nM | 1010 nM | > 10000 nM | 610 nM | > 2000 nM | 380 nM | Cc1cc(C[S+]([O-])c2[nH]c3c(Br)ccc(Cl)c3c(=O)c2C(=O)C(C)C)no1 (centres unmarked) [Compound 95, 8-bromo-5-chloro-3-isobutyryl-2-(((5-methylisoxazol-3-yl)methyl)sulfinyl)quinolin-4(1H)-one] | > 10000 nM
